Data as given in PMC10272112 (Nature Communications, 2023).
“And” between values parts separate entries of the source, which are not always exact repeats. Equal entries are not always repeated.

Legend:
[1] = cited from earlier work
HDAC3 = molecular target: T1, HDAC3 (Homo sapiens, UniProt O15379); experiment: Chemoproteomic competition pulldown assay; type: binding; conditions: iL, MV4-11 lysate
T1 construct: endogenous in cells; host or cells: MV4-11 lysate
Method: To identify proteins directly bound by lipoic acid, we employed a chemoproteomic competition assay. Briefly, (R/S)-LA was immobilized on sepharose beads via an amidation reaction to form an affinity matrix (abbreviated as iL; Fig. 1a). This affinity matrix can be incubated with cell lysate to pull down potential LA or LM target proteins and identify these targets via bottom-up proteomics. In a competition assay, free LA or LM were incubated with lysate at different concentrations before pulling down and quantifying target proteins. […] (Fig. 1b, see “Methods” for details). […] The lysate buffer used in this assay contains 1 mM DTT to mimic the intracellular reductive milieu and to reduce lipoic acid and LM. […] Additional competition assays performed in lung adenocarcinoma cell A549 lysate also identified HDAC1, HDAC2, and HDAC6 as targets (Supplementary Fig. 1b). Amongst the three cell lines tested, HDACs were the only confidently identified targets across the 1500–3000 proteins quantified in these assays. […] We validated the results by analogous pulldown competition assays using two other affinity matrices prepared via the immobilization of either the HDAC inhibitor Quisinostat (iQ) and an analog of the class IIa HDAC inhibitor Bürli’s 31[14] (iC)[12]. We have previously shown that these affinity matrices specifically bind to the active sites of HDACs and have used them for HDACi selectivity profiling. Indeed, binding of (R/S)-LA and (R/S)-LM to HDAC1, HDAC2, HDAC3, HDAC6, and, to a lesser extent, HDAC8 was confirmed in these assays (Supplementary Fig. 1c, d). No binding to class IIa HDACs or the recently discovered common HDAC inhibitor off-target MBLAC2 was observed (Supplementary Fig. 1e)[12]. […] This observation might reflect electrostatic repulsion between the HDAC10 active site gate-keeper glutamic acid residues[15],[16] and the terminal carboxylic acid of LA.
To assess the degree of protein depletion from lysates by the affinity matrix, a second pulldown (PDPD) with fresh beads was performed using the unbound protein fraction from the vehicle control flow through. The beads were washed (1 × 1 mL of lysis buffer without inhibitors and only 0.4% Igepal, 2 × 2 mL of lysis buffer without inhibitors and only 0.2% Igepal), and captured proteins were denatured with 8 M urea buffer, alkylated with 55 mM chloroacetamide and digested with Trypsin according to standard procedures. The resulting peptides were desalted on a C18 filter plate (Sep-Pak® tC18 µElution Plate, Waters), vacuum dried, and stored at −20 °C until LC–MSMS measurement.
For the competition assays, relative binding was calculated based on the protein intensity ratio to the DMSO control for every single inhibitor concentration. EC50 values were derived from a four-parameter log-logistic regression with variable slope (constrain: bottom > 0). The obtained EC50 values were multiplied with a protein-dependent correction factor (cf), resulting in the apparent Kd value (Kd^app). The correction factor is determined by calculating the ratio of the protein intensity of two consecutive pulldowns of the vehicle control sample[13]. Targets of the inhibitors were annotated manually according to published procedures[12],[46],[47]. […] Additionally, the number of unique peptides and MSMS counts per condition were taken into account. Positive target binding across several independent experiments performed with different cell lysates further substantiated our confidence for a true positive drug-target binding event.

HDAC10 = molecular target: T2, HDAC10 (Homo sapiens, UniProt Q969S8); experiment: NanoBRET intracellular target engagement assay; type: cell-based; conditions: HeLa cells
T2 construct: host or cells: HeLa mono-clones, stably expressing
T2 sequence (Q969S8 1-669): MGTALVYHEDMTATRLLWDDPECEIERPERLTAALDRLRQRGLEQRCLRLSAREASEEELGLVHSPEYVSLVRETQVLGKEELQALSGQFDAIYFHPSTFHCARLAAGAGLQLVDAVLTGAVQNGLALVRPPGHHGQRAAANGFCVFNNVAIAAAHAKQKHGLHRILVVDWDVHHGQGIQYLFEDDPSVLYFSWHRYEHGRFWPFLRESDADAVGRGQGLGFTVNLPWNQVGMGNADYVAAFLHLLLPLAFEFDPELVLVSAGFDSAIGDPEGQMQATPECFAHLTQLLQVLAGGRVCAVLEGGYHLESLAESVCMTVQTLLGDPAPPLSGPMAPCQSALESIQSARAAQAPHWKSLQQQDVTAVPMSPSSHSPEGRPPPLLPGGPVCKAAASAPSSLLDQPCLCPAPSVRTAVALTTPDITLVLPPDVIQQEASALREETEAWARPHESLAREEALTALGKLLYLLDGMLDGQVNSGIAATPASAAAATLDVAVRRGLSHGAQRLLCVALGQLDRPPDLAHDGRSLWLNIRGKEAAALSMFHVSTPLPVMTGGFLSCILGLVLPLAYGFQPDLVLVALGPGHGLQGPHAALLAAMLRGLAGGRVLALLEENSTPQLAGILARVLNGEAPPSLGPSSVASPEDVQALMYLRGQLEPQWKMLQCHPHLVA
Method: For the production of transfected HeLa mono-clones stably expressing HDAC-nanoBRET fusion proteins of HDAC10 and HDAC6-catalytic domain 2 (HDAC6CD2), plasmids expressing a fusion of HDAC10 with nanoluciferase were obtained from Promega (N2170). HeLa cells (0.75 × 10^6) were seeded in a 6 cm dish and were transfected with a mix of 10 μg plasmid and 3 μL Fugene in 200 μL OptiMEM after 24 h. The intracellular target engagement assay on HDAC10 and HDAC6CD2 was performed using the NanoBRET™ Target Engagement Intracellular HDAC Assay (Promega N2081 and N2090) as described by the kit manufacturer in a 96-well plate (Corning 3600) format with 2 × 10^4 cells per well and a tracer concentration of 0.3 μM. Inhibitors were dosed with a D300e Digital Dispenser (Tecan). DMSO concentrations were normalized to 0.5% for all wells. After dosing, assay plates were shaken at 800 rpm and incubated at 37 °C for 2 h followed by measurement of 450 nm and 650 nm luminescence (80 nm bandwidth) at room temperature with a CLARIOstar (BMG Labtech) plate reader 2 min after NanoLuc substrate addition.

A549 cells = experiment: CellRox deep red assay for ROS quantification (with or without arsenite); type: cell-based; conditions: sheet 4d

T1 sequence (O15379 whole entry): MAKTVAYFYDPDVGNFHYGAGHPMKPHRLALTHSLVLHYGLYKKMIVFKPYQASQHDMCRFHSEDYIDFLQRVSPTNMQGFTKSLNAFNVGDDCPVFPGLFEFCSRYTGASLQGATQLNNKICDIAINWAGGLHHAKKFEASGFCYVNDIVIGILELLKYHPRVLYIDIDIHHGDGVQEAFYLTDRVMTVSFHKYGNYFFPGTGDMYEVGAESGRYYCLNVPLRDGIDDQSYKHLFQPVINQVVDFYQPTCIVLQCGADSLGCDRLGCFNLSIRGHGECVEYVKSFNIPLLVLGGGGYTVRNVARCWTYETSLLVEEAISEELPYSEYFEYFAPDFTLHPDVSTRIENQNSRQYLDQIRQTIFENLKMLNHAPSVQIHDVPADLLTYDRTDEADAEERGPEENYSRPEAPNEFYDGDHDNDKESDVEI
T1 sequence (O75376 whole entry partner): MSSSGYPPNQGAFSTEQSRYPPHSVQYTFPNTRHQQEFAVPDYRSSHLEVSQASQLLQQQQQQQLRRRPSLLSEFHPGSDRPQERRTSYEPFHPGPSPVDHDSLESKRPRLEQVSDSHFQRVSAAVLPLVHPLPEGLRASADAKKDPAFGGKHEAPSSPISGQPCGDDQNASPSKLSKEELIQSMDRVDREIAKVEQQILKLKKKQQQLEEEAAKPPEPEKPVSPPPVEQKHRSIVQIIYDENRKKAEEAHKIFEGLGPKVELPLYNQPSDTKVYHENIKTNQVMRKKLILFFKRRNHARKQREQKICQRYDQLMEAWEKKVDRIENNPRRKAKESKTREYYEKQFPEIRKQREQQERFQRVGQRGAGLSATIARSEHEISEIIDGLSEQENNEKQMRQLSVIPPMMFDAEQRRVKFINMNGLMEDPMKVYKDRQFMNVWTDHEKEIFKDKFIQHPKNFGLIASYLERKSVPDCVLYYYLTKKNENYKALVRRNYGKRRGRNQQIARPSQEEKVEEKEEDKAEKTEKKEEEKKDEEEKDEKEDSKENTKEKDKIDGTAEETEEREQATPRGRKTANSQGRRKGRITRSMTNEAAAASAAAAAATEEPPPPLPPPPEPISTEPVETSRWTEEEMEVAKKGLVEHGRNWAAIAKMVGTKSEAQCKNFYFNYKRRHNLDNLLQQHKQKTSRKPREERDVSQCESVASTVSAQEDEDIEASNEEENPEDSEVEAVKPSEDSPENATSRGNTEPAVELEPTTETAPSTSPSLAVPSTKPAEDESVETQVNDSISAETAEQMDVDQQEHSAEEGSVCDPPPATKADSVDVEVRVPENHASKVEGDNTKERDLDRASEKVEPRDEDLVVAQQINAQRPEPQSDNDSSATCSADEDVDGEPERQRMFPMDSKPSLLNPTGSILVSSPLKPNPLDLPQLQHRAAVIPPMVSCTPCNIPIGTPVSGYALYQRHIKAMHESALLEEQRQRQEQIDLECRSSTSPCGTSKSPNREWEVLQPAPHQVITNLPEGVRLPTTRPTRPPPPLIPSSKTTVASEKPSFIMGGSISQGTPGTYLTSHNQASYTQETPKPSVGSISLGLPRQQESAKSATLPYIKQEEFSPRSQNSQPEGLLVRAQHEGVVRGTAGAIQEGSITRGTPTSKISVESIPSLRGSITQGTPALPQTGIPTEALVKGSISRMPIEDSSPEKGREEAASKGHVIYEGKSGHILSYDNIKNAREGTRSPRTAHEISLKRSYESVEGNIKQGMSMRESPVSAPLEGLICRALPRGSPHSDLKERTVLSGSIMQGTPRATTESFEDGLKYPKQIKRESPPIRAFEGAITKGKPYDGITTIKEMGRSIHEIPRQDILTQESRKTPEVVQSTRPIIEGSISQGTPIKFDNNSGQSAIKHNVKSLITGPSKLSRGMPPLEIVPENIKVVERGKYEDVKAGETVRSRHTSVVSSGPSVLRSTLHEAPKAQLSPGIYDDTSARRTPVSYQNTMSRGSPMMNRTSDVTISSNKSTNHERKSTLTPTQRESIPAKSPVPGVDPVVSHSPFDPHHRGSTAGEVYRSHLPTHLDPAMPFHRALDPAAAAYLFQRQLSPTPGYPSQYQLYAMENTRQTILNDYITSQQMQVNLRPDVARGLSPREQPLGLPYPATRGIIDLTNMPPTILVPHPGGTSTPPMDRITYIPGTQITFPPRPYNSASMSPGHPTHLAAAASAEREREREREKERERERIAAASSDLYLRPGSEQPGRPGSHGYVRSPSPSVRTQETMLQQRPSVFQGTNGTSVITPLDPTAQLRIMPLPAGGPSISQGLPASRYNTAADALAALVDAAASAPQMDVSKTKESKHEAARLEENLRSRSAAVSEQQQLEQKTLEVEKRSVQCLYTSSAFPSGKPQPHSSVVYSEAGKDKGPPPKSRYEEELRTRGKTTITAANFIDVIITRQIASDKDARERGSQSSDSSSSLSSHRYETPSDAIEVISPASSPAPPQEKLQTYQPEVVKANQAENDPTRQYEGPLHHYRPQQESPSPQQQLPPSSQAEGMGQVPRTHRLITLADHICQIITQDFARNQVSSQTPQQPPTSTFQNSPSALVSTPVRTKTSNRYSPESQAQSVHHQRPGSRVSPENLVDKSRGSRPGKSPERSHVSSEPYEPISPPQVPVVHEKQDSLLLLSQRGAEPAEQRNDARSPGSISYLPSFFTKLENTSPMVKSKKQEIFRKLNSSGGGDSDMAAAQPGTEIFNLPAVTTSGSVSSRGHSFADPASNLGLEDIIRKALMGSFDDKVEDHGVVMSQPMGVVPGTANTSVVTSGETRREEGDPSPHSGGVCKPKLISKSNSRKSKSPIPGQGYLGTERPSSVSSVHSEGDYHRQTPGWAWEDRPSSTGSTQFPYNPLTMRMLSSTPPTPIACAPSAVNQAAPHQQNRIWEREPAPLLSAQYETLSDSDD

Structure (SMILES) | peak plasma concentrations ([1]; clinically relevant doses 600 to 2400 mg/day, orally and intravenously) [µM] | peak plasma concentration ([1]; in humans) | relative binding vs DMSO (HDAC3; log10 M -3.52288) | relative binding vs DMSO (HDAC3; log10 M -4) | relative binding vs DMSO (HDAC3; log10 M -4.52288) | relative binding vs DMSO (HDAC3; log10 M -5) | relative binding vs DMSO (HDAC3; log10 M -5.52288) | relative binding vs DMSO (HDAC3; log10 M -6) | relative binding vs DMSO (HDAC3; log10 M -6.52288) | relative binding vs DMSO (HDAC3; log10 M -7) | Kd (HDAC3; read-out: Kd app) [µM] | intracellular binding to HDAC10 (HDAC10) | ROS (CellRox), relative to DMSO -Ars., Mean (A549 cells; R/S-LM +Ars) | ROS (CellRox), relative to DMSO -Ars., replicate values (A549 cells; R/S-LM +Ars) | ROS (CellRox), relative to DMSO -Ars., Mean (A549 cells; R/S-LM -Ars) | ROS (CellRox), relative to DMSO -Ars., replicate values (A549 cells; R/S-LM -Ars)
O=C(O)CCCCC1CCSS1 (racemic) [(R/S)-LA, (R/S)-lipoic acid] | 100 to 500 | about 0.5 mM |  |  |  |  |  |  |  |  |  |  |  |  |  | 
NC(=O)CCCCC1CCSS1 (racemic) [(R/S)-LM, (R/S)-lipoamide] |  |  | 0.06787 | 0.1873 | 0.229 | 0.6794 | 1.111 | 0.7918 | 1.34 | 0.7531 | 13 | dose-dependent intracellular binding | 1.413 | 1.506 and 1.194 and 1.54 | 1.131 | 1.077 and 0.9596 and 1.357
